According to patent publication US20170234860A1, “SEQUENCE AND CHIRAL SELECTIVITY OF DNA-DRUG INTERACTIONS REVEALED BY FORCE SPECTROSCOPY” (UNIVERSITY OF HOUSTON SYSTEM, priority 2014, published 2017):

Columns and labels:
[1] = tested on: DNA duplex 5′-CCC GGG TTT CCC-3′ / 3′-GGG CCC AAT GGG-5′ containing a T-T pair; experiment: FIRMS binding force of the T-Hg-T system (DNA duplex with T-T pair)
Protocol: (§1) Some embodiments of the method of using a differential binding force to quantify the efficiency of a drug molecule to a receptor comprises a process wherein one strand of the DNA duplex is immobilized on a surface, while the other is labeled with a magnetic particle. The binding forces of the DNA duplex are measured in the absence and presence of the drug molecule, denoted as F1 and F2, respectively. The differential binding force, F2-F1, characterizes the influence of the drug-DNA binding on the stability of the DNA. The binding forces are obtained using the FIRMS technique, depicted in FIG. 1.
(§2) Magnetic particles M280 were used to label one strand of the DNA duplexes as previously characterized.^16] After initial magnetization by a permanent magnet, the magnetic signal of the particles were detected by an atomic magnetometer, with a sensitivity of 200 fT/(Hz)^1/2. Sample wells (4×2×1 mm^3) with a biotin-coated bottom surface were used to immobilize the other strand of the DNA duplexes. Mechanical forces were applied using a centrifuge (Eppendorf 5417R).
The sample well, with dimensions of 4×2×1 mm^3 (L×W×D), was coated with biotin on the bottom surface. An aqueous solution of 0.625 mg/mL streptavidin was loaded into the sample well and incubated for 1 hr. Then the sample well was rinsed three times with a buffer solution as described below. […]

[2] = tested on: DNA duplex 5′-CGCGAAAAACGCG-3′; experiment: FIRMS binding force of groove-binding drugs with DNA; settings: for binding force of DNA with drug: DNA alone 59 pN
Protocol: as §1
The method of differential binding force can also be used to quantify a different binding mode of DNA-drug interactions. We chose two groove-binding drugs, netropsin and berenil. The groove-binding interaction is different from the intercalation interaction of daunomycin and THP. Shown in FIG. 6 are the binding forces of DNA alone, DNA with netropsin, and DNA with berenil, with values of 59, 63, and 73 pN, respectively. The DNA sequence was 5′-CGCGAAAAACGCG-3′ (SEQ. 5). The binding forces yield differential binding force of 4 pN for netropsin and 14 pN for berenil.

[3] = tested on: DNA1 (5′-CCC AAT CGA CCC-3′ with complementary strand 5′-GGG TCG ATT GGG-3′); experiment: FIRMS binding force of drug with DNA1
Protocol: as §1
as §2, with “Mechanical forces were applied using a centrifuge (Eppendorf 5417R).” left out
(§3) DNA Intercalation is widely considered as its binding mode, although minor groove binding has also been discussed,^[24] however, the specificity has previously not been quantified by binding strength. […] As a control experiment the differential binding force of daunomycin with a different DNA duplex, DNA2, with sequence 5′-CCC GGG TTT CCC-3′ and its complementary strand was measured.

[4] = tested on: DNA2 (5′-CCC GGG TTT CCC-3′ and its complementary strand); experiment: FIRMS binding force of drug with DNA2
Protocol: as §1
as §2, with “Mechanical forces were applied using a centrifuge (Eppendorf 5417R).” left out
as §3

`[Hg+2]` [Hg] was tested, and the “binding force of the DNA duplex upon binding” value ([1]; DNA alone 40 pN, HEPES buffer pH 7.6) was 54 pN and the “differential binding force (F2-F1)” value ([1]; increase over DNA alone) was 14 pN.
In the case of `Cn1cc(NC(=O)c2cc(NC(=O)CN=C(N)N)cn2C)cc1C(=O)NCCC(=N)N` [netropsin], the “differential binding force (F2-F1)” value [2] is reported as 4 pN and the “binding force of DNA with drug” value [2] is reported as 63 pN.
In the case of `CC(=O)NCC(=O)O.CC(=O)NCC(=O)O.N=C(N)c1ccc(N=NNc2ccc(C(=N)N)cc2)cc1` [berenil], the “differential binding force (F2-F1)” value [2] is reported as 14 pN and the “binding force of DNA with drug” value [2] is reported as 73 pN.
For `COc1cccc2c1C(=O)c1c(O)c3c(c(O)c1C2=O)C[C@@](O)(C(C)=O)C[C@@H]3O[C@H]1C[C@H](N)[C@H](O)[C@H](C)O1` [daunomycin], the “differential binding force (F2-F1)” value [3] was 12 pN, the “binding force of DNA1 with drug” value ([3]; DNA alone 45 pN (daunomycin, TE buffer) or 44 pN (THP, BPES buffer)) was 57 pN and the “differential binding force (F2-F1)” value [4] was “no significant force difference”. The “binding force of DNA2 with drug” value ([4]; DNA alone 51 pN) was 52 pN.
